Test results reported in ChEMBL document CHEMBL1201862, “PubChem BioAssay data set” (2004).
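1) Cells in 96-well plates. 2) Compound, 48 h, 5 concentrations. 3) Linear interpolation between surrounding doses. 4) Unreached endpoint = highest concentration. GI50 marks 50% less growth.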 Calls of active or inactive are those of the source. Rule as the data show it: active = GI50 up to about 1.1 µM and inactive = higher.

What was measured:
Test in all cases: inhibition of tumour cell growth, NCI panel, 48 h
SK-MEL-5 = test system: SK-MEL-5
Malme-3M = test system: Malme-3M
OVCAR-3 = test system: OVCAR-3
IGROV-1 = test system: IGROV-1
HOP-62 = test system: HOP-62
OVCAR-4 = test system: OVCAR-4
CCRF-CEM = test system: CCRF-CEM
SNB-75 = test system: SNB-75
UACC-257 = test system: UACC-257
UACC-62 = test system: UACC-62
NCI-H23 = test system: NCI-H23
KM12 = test system: KM12
OVCAR-8 = test system: OVCAR-8
HL-60 = test system: HL-60
A549 = test system: A549
HOP-92 = test system: HOP-92
SF-295 = test system: SF-295
SW-620 = test system: SW-620
SF-268 = test system: SF-268
TK-10 = test system: TK-10

Row | Compound | GI50 (SK-MEL-5) | GI50 (Malme-3M) | GI50 (OVCAR-3) | GI50 (IGROV-1) | GI50 (HOP-62) | GI50 (OVCAR-4) | GI50 (CCRF-CEM) | GI50 (SNB-75) | GI50 (UACC-257) | GI50 (UACC-62) | GI50 (NCI-H23) | GI50 (KM12) | GI50 (OVCAR-8) | GI50 (HL-60) | GI50 (A549) | GI50 (HOP-92) | GI50 (SF-295) | GI50 (SW-620) | GI50 (SF-268) | GI50 (TK-10)
1 | CC1=CC(=O)N(c2c(C)cccc2Cl)C(C)N1 (stereo not given) | > 100 µM (inactive) | > 100 µM (inactive) | > 100 µM (inactive) | > 100 µM (inactive) | > 100 µM (inactive) | > 100 µM (inactive) | > 100 µM (inactive) | > 100 µM (inactive) | > 100 µM (inactive) | > 100 µM (inactive) | > 100 µM (inactive) | > 100 µM (inactive) | > 100 µM (inactive) | > 100 µM (inactive) | > 100 µM (inactive) | > 100 µM (inactive) | > 100 µM (inactive) | > 100 µM (inactive) | > 100 µM (inactive) | > 100 µM (inactive)
2 | Oc1ccc(Cl)cc1-c1nc(S)nc(-c2ccccc2)c1Cl | > 61.7 µM (inactive) | > 100 µM (inactive) | > 100 µM (inactive) | 72.4 µM (inactive) | 31.1 µM (inactive) | > 100 µM (inactive) | > 100 µM (inactive) | 18.9 µM (inactive) | > 100 µM (inactive) | > 10 µM (inactive) | > 100 µM (inactive) | > 100 µM (inactive) | > 100 µM (inactive) | > 100 µM (inactive) | > 100 µM (inactive) | 69.8 µM (inactive) | 28.6 µM (inactive) | > 100 µM (inactive) | > 64.3 µM (inactive) | 49.1 µM (inactive)
3 | C[C@]12CC[C@H]3[C@@H](CCC4=CC(=O)CC[C@@H]43)[C@@H]1CC[C@]2(O)C(N)=O | > 100 µM (inactive) | > 100 µM (inactive) | > 100 µM (inactive) | > 100 µM (inactive) | > 100 µM (inactive) | > 100 µM (inactive) | > 100 µM (inactive) | > 100 µM (inactive) | > 100 µM (inactive) | > 100 µM (inactive) | > 100 µM (inactive) | > 100 µM (inactive) | > 100 µM (inactive) | > 100 µM (inactive) | > 100 µM (inactive) | > 100 µM (inactive) | > 100 µM (inactive) | > 100 µM (inactive) | > 100 µM (inactive) | > 100 µM (inactive)
4 | CCOC1c2cc(OC)c(OC)cc2-c2ccc3ccccc3c2N1C (stereo not given) | 16.4 µM (inactive) | 9.16 µM (inactive) | 11.5 µM (inactive) | 19.2 µM (inactive) | 15.7 µM (inactive) | 19 µM (inactive) | 18 µM (inactive) | 11.8 µM (inactive) | 16.6 µM (inactive) | 12.6 µM (inactive) | 8 µM (inactive) | 2.66 µM (inactive) | 12.2 µM (inactive) | 44.1 µM (inactive) | 5.62 µM (inactive) | 21.9 µM (inactive) | 24.4 µM (inactive) | 8.65 µM (inactive) | 2.05 µM (inactive) | 31.6 µM (inactive)
5 | O=[N+]([O-])c1cc(C(F)(F)F)cc([N+](=O)[O-])c1CCl | 0.456 µM (active) | 3.23 µM (inactive) | 5.24 µM (inactive) | 2.32 µM (inactive) | 16.1 µM (inactive) | 1.63 µM (inactive) | 0.0993 µM (active) | 4.5 µM (inactive) | 3.72 µM (inactive) | 0.336 µM (active) | 1.69 µM (inactive) | 2.23 µM (inactive) | 2.14 µM (inactive) | 1.31 µM (inactive) | 9.53 µM (inactive) | 4.9 µM (inactive) | 5.78 µM (inactive) | 0.429 µM (active) | 4.09 µM (inactive) | 8.53 µM (inactive)
6 | Cc1cc(O)c2c(c1)C(=O)C=C(Br)C2=O | 14.4 µM (inactive) | 7.69 µM (inactive) | 16.7 µM (inactive) | > 43.7 µM (inactive) | > 63.5 µM (inactive) | 11.8 µM (inactive) | 0.255 µM (active) | 16.8 µM (inactive) | 13.1 µM (inactive) | 16.6 µM (inactive) | 17.1 µM (inactive) | 27.2 µM (inactive) | 19.6 µM (inactive) | 0.724 µM (active) | 30.3 µM (inactive) | 13.8 µM (inactive) | 36 µM (inactive) | 3.42 µM (inactive) | 30.5 µM (inactive) | 16.4 µM (inactive)
7 | O=[N+]([O-])c1ccc2c(c1)/C(=N/N=C1c3ccccc3Cc3ccccc31)c1cc([N+](=O)[O-])cc([N+](=O)[O-])c1-2 | 4.42 µM (inactive) | 2.79 µM (inactive) | 1.69 µM (inactive) | 1.55 µM (inactive) | 3.01 µM (inactive) | 1.73 µM (inactive) | 1.75 µM (inactive) | 2.81 µM (inactive) | 2.08 µM (inactive) | 2.62 µM (inactive) | 1.96 µM (inactive) | 2.47 µM (inactive) | 1.67 µM (inactive) | 2.26 µM (inactive) | 9.4 µM (inactive) | 2.17 µM (inactive) | 1.93 µM (inactive) | 3.28 µM (inactive) | 2.51 µM (inactive) | 4.29 µM (inactive)
8 | O=C(/C=C/c1ccc(OCCCOc2ccc(/C=C/C(=O)c3ccc(Cl)cc3)cc2)cc1)c1ccc(Cl)cc1 | > 100 µM (inactive) | > 100 µM (inactive) | > 100 µM (inactive) | > 100 µM (inactive) | > 100 µM (inactive) | > 100 µM (inactive) | > 100 µM (inactive) | 34.6 µM (inactive) | > 100 µM (inactive) | > 100 µM (inactive) | > 100 µM (inactive) | > 100 µM (inactive) | > 100 µM (inactive) | > 100 µM (inactive) | > 100 µM (inactive) | > 100 µM (inactive) | > 100 µM (inactive) | > 100 µM (inactive) | > 100 µM (inactive) | > 100 µM (inactive)
